Laboratory results: the supplement of paper PMC10307832

Legend:
Assay in all cases: relative viability (nuclei count vs DMSO), 5 days (fraction); higher = more cells survive
[1] = compound: Cc1ccc(Nc2nccc(N(C)c3ccc4c(C)n(C)nc4c3)n2)cc1S(N)(=O)=O [Pazopanib] + Cc1nc(Nc2ncc(C(=O)Nc3c(C)cccc3Cl)s2)cc(N2CCN(CCO)CC2)n1 [Dasatinib] (partner 0.075 µM)
Summary of the method: (§1)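 A single step with final 0.05% Triton X-100, 1% formaldehyde and 1 ug/ml Hoechst fixed the cells and stained nuclei 5 days after treatment. Lung cancer cell lines in 1536-well plates had been treated by pin tool the day after seeding with one drug alone or a fixed anchor-drug dose plus five library-drug doses (not always all listed) in √10 steps, and nuclei were counted on 4× images. Relative viability is the ratio of nuclei in treated wells to nuclei in vehicle wells, taken as the median of duplicate plates.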

[2] = compound: Cc1ccc(C(=O)Nc2ccc(CN3CCN(C)CC3)c(C(F)(F)F)c2)cc1C#Cc1cnc2cccnn12 [Ponatinib] + Nc1ncn([C@H]2C[C@H](O)[C@@H](CO)O2)c(=O)n1 [Decitabine] (partner 2 µM)
Summary of the method: as §1

[3] = compound: Cc1ccc(Nc2nccc(N(C)c3ccc4c(C)n(C)nc4c3)n2)cc1S(N)(=O)=O [Pazopanib] + CCNC(=O)c1noc(-c2cc(C(C)C)c(O)cc2O)c1-c1ccc(CN2CCOCC2)cc1 [Luminespib] (partner 0.01 µM)
Summary of the method: as §1

[4] = compound: Cc1ccc(C(=O)Nc2ccc(CN3CCN(C)CC3)c(C(F)(F)F)c2)cc1C#Cc1cnc2cccnn12 [Ponatinib] + CC(C)C[C@H](NC(=O)[C@H](Cc1ccccc1)NC(=O)c1cnccn1)B(O)O [Bortezomib] (partner 0.002 µM)
Summary of the method: as §1

Cell Line | relative viability ([1]; first compound 0.01 µM) | relative viability ([1]; first compound 0.03162 µM) | relative viability ([1]; first compound 0.1 µM) | relative viability ([1]; first compound 0.3162 µM) | relative viability ([1]; first compound 1 µM) | relative viability ([2]; first compound 0.002 µM) | relative viability ([2]; first compound 0.006325 µM) | relative viability ([2]; first compound 0.06325 µM) | relative viability ([2]; first compound 0.2 µM) | relative viability ([3]; first compound 0.01 µM) | relative viability ([3]; first compound 0.03162 µM) | relative viability ([3]; first compound 0.1 µM) | relative viability ([3]; first compound 0.3162 µM) | relative viability ([3]; first compound 1 µM) | relative viability ([4]; first compound 0.002 µM) | relative viability ([4]; first compound 0.006325 µM) | relative viability ([4]; first compound 0.06325 µM) | relative viability ([4]; first compound 0.2 µM)
LC-2-ad | 0.445 | 0.555 | 0.575 | 0.792 | 0.535 | 0.738 | 0.684 | 0.696 | 0.582 | 0.992 | 1.06 | 1.02 | 1.03 | 1.23 | 0.964 | 1.01 | 0.911 | 0.875
LCLC-97TM1 | 0.771 | 0.854 | 0.888 | 0.847 | 0.785 | 0.205 | 0.242 | 0.214 | 0.248 | 0.817 | 0.839 | 0.831 | 0.925 | 0.736 | 0.309 | 0.818 | 0.74 | 0.483
LCLC-103H | 0.314 | 0.472 | 0.495 | 0.451 | 0.459 | 0.713 | 0.693 | 0.759 | 0.722 | 0.861 | 1.02 | 1.03 | 0.937 | 1.05 | 1.05 | 1.12 | 1.23 | 1.25
LOU-NH91 | 0.49 | 0.523 | 0.559 | 0.603 | 0.565 | 0.778 | 0.788 | 0.868 | 0.766 | 0.335 | 0.336 | 0.331 | 0.324 | 0.275 | 0.399 | 0.543 | 0.557 | 0.568
LU99A | 0.425 | 0.545 | 0.622 | 0.54 | 0.503 | 0.803 | 0.968 | 0.992 | 0.789 | 0.245 | 0.226 | 0.244 | 0.279 | 0.258 | 1.14 | 1.07 | 1.21 | 1.24
LXF-289 | 0.224 | 0.236 | 0.19 | 0.156 | 0.242 | 0.388 | 0.359 | 0.36 | 0.379 | 0.74 | 0.713 | 0.69 | 0.67 | 0.729 | 0.946 | 0.996 | 1 | 0.98
NCI-H23 | 0.722 | 0.852 | 0.94 | 0.869 | 0.894 | 0.286 | 0.313 | 0.332 | 0.297 | 0.227 | 0.209 | 0.219 | 0.226 | 0.231 | 0.942 | 1.04 | 1.15 | 0.853
NCI-H322M | 0.265 | 0.258 | 0.257 | 0.275 | 0.277 | 0.681 | 0.688 | 0.736 | 0.629 | 0.956 | 0.954 | 0.871 | 0.945 | 0.844 | 1.19 | 1.27 | 1.44 | 1.21
